Experimental data taken from patent EP1517674B1, “PREPARATIONS FOR THE INTRANASAL APPLICATION OF SELECTED CGRP A[…] FROM AMINO ACIDS AND A METHOD FOR THEIR PRODUCTION” (Boehringer Ingelheim Pharma GmbH & Co. KG, priority 2002, dated 2003).

Assay: Stability test of higher-concentration nasal spray solutions (hydrochloride in aqueous solution, packed in aluminium pouch)
Type: physicochemical
Details: for Gehalt an Wirkstoff (A): as free base
Method: Stabilitätsprüfung höher konzentrierter erfindungsgemäßer Nasalspray-Lösungen:
Die nachfolgende Tabelle zeigt, dass die oxidative Zersetzung des nachstehend aufgeführten Wirkstoffs
Die zum Teil (insbesondere bei 40°C) hohe Gesamtzersetzung beruht auf Hydrolyse.
Der in der Tabelle 1 angegebene Gehalt an Wirkstoff (A) bezieht sich jeweils auf die ursprünglich eingewogene freie Base.

[1] = Wirkstoff-Konzentration 15 %, 3-Monats-Wert, 25°C, 129600 min
[2] = Wirkstoff-Konzentration 15 %, 3-Monats-Wert, 40°C, 129600 min
[3] = Wirkstoff-Konzentration 15 %, 6-Monats-Wert, 25°C, 259200 min
[4] = Wirkstoff-Konzentration 15 %, 6-Monats-Wert, 40°C, 259200 min
[5] = Wirkstoff-Konzentration 15 %, 6-Wochen-Wert, 25°C, 60480 min
[6] = Wirkstoff-Konzentration 15 %, 6-Wochen-Wert, 40°C, 60480 min
[7] = Wirkstoff-Konzentration 15 %, Anfangswert
[8] = Wirkstoff-Konzentration 20 %, 3-Monats-Wert, 25°C, 129600 min
[9] = Wirkstoff-Konzentration 20 %, 3-Monats-Wert, 40°C, 129600 min
[10] = Wirkstoff-Konzentration 20 %, 6-Monats-Wert, 25°C, 259200 min
[11] = Wirkstoff-Konzentration 20 %, 6-Monats-Wert, 40°C, 259200 min
[12] = Wirkstoff-Konzentration 20 %, 6-Wochen-Wert, 25°C, 60480 min
[13] = Wirkstoff-Konzentration 20 %, 6-Wochen-Wert, 40°C, 60480 min
[14] = Wirkstoff-Konzentration 20 %, Anfangswert
[15] = Wirkstoff-Konzentration 30 %, 3-Monats-Wert, 25°C, 129600 min
[16] = Wirkstoff-Konzentration 30 %, 3-Monats-Wert, 40°C, 129600 min
[17] = Wirkstoff-Konzentration 30 %, 6-Monats-Wert, 25°C, 259200 min
[18] = Wirkstoff-Konzentration 30 %, 6-Monats-Wert, 40°C, 259200 min
[19] = Wirkstoff-Konzentration 30 %, 6-Wochen-Wert, 25°C, 60480 min
[20] = Wirkstoff-Konzentration 30 %, 6-Wochen-Wert, 40°C, 60480 min
[21] = Wirkstoff-Konzentration 30 %, Anfangswert

NCCCC[C@H](NC(=O)[C@@H](Cc1cc(Br)c(O)c(Br)c1)NC(=O)N1CCC(N2Cc3ccccc3NC2=O)CC1)C(=O)N1CCN(c2ccncc2)CC1 [(A), 1-[N^2-[3,5-Dibrom-N-[[4-(3,4-dihydro-2(1 H)-oxochinazolin-3-yl)-1-piperidinyl]-carbonyl]-D-tyrosyl]-L-lysyl]-4-(4-pyridinyl)-piperazin]
Gesamt-Zersetzung [1]: 1,69% | Zersetzung durch Oxidation [1]: 0,64% | Gehalt an Wirkstoff (A) (Wirkstoff-Konzentration 15 %, 3-Monats-Wert, 25°C): 147,7mg/ml | Gesamt-Zersetzung [2]: 8,22% | Zersetzung durch Oxidation [2]: 0,55% | Gehalt an Wirkstoff (A) (Wirkstoff-Konzentration 15 %, 3-Monats-Wert, 40°C): 139,4mg/ml | Gesamt-Zersetzung [3]: 2,07% | Zersetzung durch Oxidation [3]: 0,82% | Gehalt an Wirkstoff (A) (Wirkstoff-Konzentration 15 %, 6-Monats-Wert, 25°C): 147,7mg/ml | Gesamt-Zersetzung [4]: 15.33% | Zersetzung durch Oxidation [4]: 0,78% | Gehalt an Wirkstoff (A) (Wirkstoff-Konzentration 15 %, 6-Monats-Wert, 40°C): 131,7mg/ml | Gesamt-Zersetzung [5]: 1,60% | Zersetzung durch Oxidation [5]: 0,72% | Gehalt an Wirkstoff (A) (Wirkstoff-Konzentration 15 %, 6-Wochen-Wert, 25°C): 148,1mg/ml | Gesamt-Zersetzung [6]: 4,46% | Zersetzung durch Oxidation [6]: 0,52% | Gehalt an Wirkstoff (A) (Wirkstoff-Konzentration 15 %, 6-Wochen-Wert, 40°C): 142,3mg/ml | Gesamt-Zersetzung [7]: 1,23% | Zersetzung durch Oxidation [7]: 0,59% | Gehalt an Wirkstoff (A) [7]: 148,6mg/ml | Gesamt-Zersetzung [8]: 1,50% | Zersetzung durch Oxidation [8]: 0,53% | Gehalt an Wirkstoff (A) (Wirkstoff-Konzentration 20 %, 3-Monats-Wert, 25°C): 202,8mg/ml | Gesamt-Zersetzung [9]: 8,23% | Zersetzung durch Oxidation [9]: 0,47% | Gehalt an Wirkstoff (A) (Wirkstoff-Konzentration 20 %, 3-Monats-Wert, 40°C): 191,4mg/ml | Gesamt-Zersetzung [10]: 1,99% | Zersetzung durch Oxidation [10]: 0,77% | Gehalt an Wirkstoff (A) (Wirkstoff-Konzentration 20 %, 6-Monats-Wert, 25°C): 201,8m/ml | Gesamt-Zersetzung [11]: 14,61% | Zersetzung durch Oxidation [11]: 0,74% | Gehalt an Wirkstoff (A) (Wirkstoff-Konzentration 20 %, 6-Monats-Wert, 40°C): 182,8mg/ml | Gesamt-Zersetzung [12]: 1,09% | Zersetzung durch Oxidation [12]: 0,54% | Gehalt an Wirkstoff (A) (Wirkstoff-Konzentration 20 %, 6-Wochen-Wert, 25°C): 198,7mg/ml | Gesamt-Zersetzung [13]: 3,97% | Zersetzung durch Oxidation [13]: 0,55% | Gehalt an Wirkstoff (A) (Wirkstoff-Konzentration 20 %, 6-Wochen-Wert, 40°C): 192,1mg/ml | Gesamt-Zersetzung [14]: 1,27% | Zersetzung durch Oxidation [14]: 0,56% | Gehalt an Wirkstoff (A) [14]: 197,9mg/ml | Gesamt-Zersetzung [15]: 1,48% | Zersetzung durch Oxidation [15]: 0,60% | Gehalt an Wirkstoff (A) (Wirkstoff-Konzentration 30 %, 3-Monats-Wert, 25°C): 270 mg/mL | Gesamt-Zersetzung [16]: 7.81% | Zersetzung durch Oxidation [16]: 0,59% | Gehalt an Wirkstoff (A) (Wirkstoff-Konzentration 30 %, 3-Monats-Wert, 40°C): 260 mg/mL | Gesamt-Zersetzung [17]: 2,04% | Zersetzung durch Oxidation [17]: 0,91% | Gehalt an Wirkstoff (A) (Wirkstoff-Konzentration 30 %, 6-Monats-Wert, 25°C): 273 mg/mL | Gesamt-Zersetzung [18]: 13,36% | Zersetzung durch Oxidation [18]: 0,84% | Gehalt an Wirkstoff (A) (Wirkstoff-Konzentration 30 %, 6-Monats-Wert, 40°C): 246 mg/mL | Gesamt-Zersetzung [19]: 1,19% | Zersetzung durch Oxidation [19]: 0,62% | Gehalt an Wirkstoff (A) (Wirkstoff-Konzentration 30 %, 6-Wochen-Wert, 25°C): 264 mg/mL | Gesamt-Zersetzung [20]: 3,95% | Zersetzung durch Oxidation [20]: 0,58% | Gehalt an Wirkstoff (A) (Wirkstoff-Konzentration 30 %, 6-Wochen-Wert, 40°C): 260 mg/mL | Gesamt-Zersetzung [21]: 1,20% | Zersetzung durch Oxidation [21]: 0,56% | Gehalt an Wirkstoff (A) [21]: 269 mg/mL | oxidative Zersetzung (hydrochloride in aqueous solution, over a long period): praktisch unverändert
